Experimental data from publication PMC7513592 (RSC Medicinal Chemistry, 2020).
“Also recorded” adds a separate entry of the source.

What was measured:
hTRPV1 = molecular target: T1, hTRPV1 (Homo sapiens, UniProt Q8NER1); test: TRPV1 FLIPR assay: capsaicin-activated Ca2+ influx in HEK-hTRPV1 cells; type: cell-based
T1 construct: expressed in transfected cells; host or cells: HEK293T / HEK293, transient
Description: hTRPV1 activity was measured using HEK293T cells transiently overexpressing TRPV1 as previously reported.6 Briefly, HEK293 cell were trypsinized and plated at 1.5 x10^4 cells/well onto Corning® 96-well black polystyrene clear bottom microplates (CLS3603 Sigma-Aldrich) coated with 100 μg/mL poly-D-lysine (P6407 Sigma-Aldrich) using 100 μL phenol-red free DMEM with 10% FBS and 2mM glutamine without antibiotics. Cells were incubated at 37 °C for 24 h. On the following day, transfection was performed using 200 ng of pcDNA 3.1 hTRPV1 and 0.6 μL Lipofectamine 2000 reagent/well. 24 h after the transfection, the medium was replaced with 90 µL of loading buffer (modified Krebs buffer containing 117 mM NaCl, 4.8 mM KCl, 1 mM MgCl2, 5 mM D-glucose, 10 mM HEPES, 1.8 mM CaCl2 and calcium-5 fluorescence dye (50 µL/mL loading buffer)). Cells were incubated in the loading buffer at 37 °C for 1 h in dark. Fluorescence Ca2+ measurements were carried out using FLIPR TETRA high-throughput, fluorescence microplate reader as described before. Stable baselines were established for 50 s before 10 µL of a 10X solution of compound 39 or the TRPV1-inhibitor capsazepine (CPZ) prepared in 1.8 mM CaCl2-containing Krebs buffer was robotically administered to the cells. Cells were incubated and fluorescence was monitored in the presence of compound for an additional 5 min before administration of the agonist in 1.8 mM CaCl2-containing Krebs buffer (final concentration of capsaicin in the assay plate was 100 nM). The activity of TRPV1 was measured by quantifying the area under the curve (AUC) of the fluorescence intensity, following administration of the agonist.
The current HEK-hTRPV1 method employs a constant concentration of Ca2+ (1.8 mM) in the assay buffer during the whole experiment. […]
of capsaicin (100 nM) the channel was activated and a high influx of Ca2+ was immediately recorded. The activation of the TRPV1 channel is supposed to occur through displacement of lipids in the transmembrane domain. […]
Fig S2. […] Quantification […]

YFP-TRPV6 = molecular target: T2, YFP-TRPV6 (Homo sapiens, UniProt Q9H1D0); test: Whole-cell electrophysiology on YFP-TRPV6 transfected HEK293 cells; type: cell-based; conditions: 10 mM Ca2+, read-out: inhibition of TRPV6 current densities
T2 construct: expressed in transfected cells; host or cells: HEK293 (DSMZ), transient (TransFectin)
T2 sequence (Q9H1D0 41-765 limits assumed): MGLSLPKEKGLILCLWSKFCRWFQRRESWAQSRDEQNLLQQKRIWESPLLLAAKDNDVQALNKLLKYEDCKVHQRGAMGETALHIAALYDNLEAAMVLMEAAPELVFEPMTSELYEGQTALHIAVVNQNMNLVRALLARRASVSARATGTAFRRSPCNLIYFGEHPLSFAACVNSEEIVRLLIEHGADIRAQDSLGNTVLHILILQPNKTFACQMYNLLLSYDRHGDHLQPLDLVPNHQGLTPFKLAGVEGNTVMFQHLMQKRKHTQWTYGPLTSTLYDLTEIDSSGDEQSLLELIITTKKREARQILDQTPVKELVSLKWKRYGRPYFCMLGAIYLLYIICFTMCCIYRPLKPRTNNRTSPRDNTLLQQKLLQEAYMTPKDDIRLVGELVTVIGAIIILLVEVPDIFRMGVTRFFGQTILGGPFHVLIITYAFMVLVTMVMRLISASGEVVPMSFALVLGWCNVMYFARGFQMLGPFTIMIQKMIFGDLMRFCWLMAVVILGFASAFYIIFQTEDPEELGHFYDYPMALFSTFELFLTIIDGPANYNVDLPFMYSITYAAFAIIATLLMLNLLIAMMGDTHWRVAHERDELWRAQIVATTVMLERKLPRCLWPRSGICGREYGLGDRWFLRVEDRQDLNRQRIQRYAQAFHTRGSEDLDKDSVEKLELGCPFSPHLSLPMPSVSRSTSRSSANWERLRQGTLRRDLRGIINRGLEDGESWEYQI
Description: Electrophysiological experiments on YFP-TRPV6 transiently transfected HEK293 cells confirmed the activity of 39 on TRPV6. Initially, 10 mM Ca^2+ solution was applied and after the currents reached a plateau, the inhibitors at 0.1 and 10 μM were added. […] In comparison to the previously described 1, the inhibition by 39 occurred at a slower rate and was less pronounced.
HEK293 cells (DSMZ, Germany) were cultivated in DMEM medium containing 10% FCS, 100 μg/ml streptomycin and 100 U/ml penicillin. 24 h before the experiments, a transient transfection with the peYFP-C1 TRPV6 plasmid was performed by utilising TransFectinTM Lipid Reagent (Bio-Rad).
Electrophysiological experiments were conducted at room temperature (20 - 24°C) in the whole-cell configuration with an Ag/AgCl reference electrode. Voltage ramps over a time period of 200 ms from -90 to +90 mV were performed every 5 s with a holding potential of 50 mV. The internal pipette solution consisted of 145 mM Cs-methanesulfonate, 8 mM NaCl, 5 mM MgCl2, 10 mM HEPES and 20 mM EGTA, pH 7.2. The extra cellular solution (10 mM Ca2+) contained: 145 mM NaCl, 5 mM CsCl, 1 mM MgCl 2, 10 mM HEPES, 10 mM glucose and 10 mM CaCl 2, pH 7.4. The leak-correction of the currents were conducted by subtraction of the remaining leak currents after La 3+ bock. The liquid junction potential was determined as 12 mV, though applied voltages were not corrected. […]

T1 sequence (Q8NER1 whole entry): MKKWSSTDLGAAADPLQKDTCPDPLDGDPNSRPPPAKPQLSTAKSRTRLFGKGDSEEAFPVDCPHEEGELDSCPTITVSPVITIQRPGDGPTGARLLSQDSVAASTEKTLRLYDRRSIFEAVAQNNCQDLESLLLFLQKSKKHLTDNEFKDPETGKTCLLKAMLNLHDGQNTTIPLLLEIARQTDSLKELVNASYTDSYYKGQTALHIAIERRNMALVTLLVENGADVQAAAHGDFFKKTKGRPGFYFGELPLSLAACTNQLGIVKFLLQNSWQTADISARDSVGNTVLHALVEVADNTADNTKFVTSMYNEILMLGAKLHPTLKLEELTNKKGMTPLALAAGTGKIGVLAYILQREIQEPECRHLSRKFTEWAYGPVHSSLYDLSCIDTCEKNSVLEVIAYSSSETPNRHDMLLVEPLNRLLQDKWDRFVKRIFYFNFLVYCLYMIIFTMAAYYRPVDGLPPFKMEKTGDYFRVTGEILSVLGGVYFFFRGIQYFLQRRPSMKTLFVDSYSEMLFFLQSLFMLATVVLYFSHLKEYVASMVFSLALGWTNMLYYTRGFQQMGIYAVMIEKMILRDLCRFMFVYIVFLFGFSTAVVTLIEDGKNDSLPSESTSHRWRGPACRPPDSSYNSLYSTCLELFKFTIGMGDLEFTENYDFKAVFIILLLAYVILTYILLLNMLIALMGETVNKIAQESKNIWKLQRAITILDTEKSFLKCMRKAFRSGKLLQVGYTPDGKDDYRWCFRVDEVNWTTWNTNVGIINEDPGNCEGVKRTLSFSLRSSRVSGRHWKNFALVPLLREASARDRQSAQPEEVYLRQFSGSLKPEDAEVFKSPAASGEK

Structure (SMILES): O=c1ccc(CN2CCN([C@H]3CC[C@@](O)(c4cccc(C(F)(F)F)c4)CC3)CC2)c[nH]1 [compound 39]
- inhibition at 10 µM (hTRPV1; 100 nM capsaicin, read-out: inhibition of Ca2+ influx through capsaicin-activated hTRPV1): 2%
- activation or inhibition of TRPV1 (hTRPV1; 10 µM): lack of activity on TRPV1; also recorded: did not activate nor inhibit
- inhibition at 0.1 µM (YFP-TRPV6; 0.1 μM): 30.8 ± 5.1%
- inhibition at 10 µM (YFP-TRPV6; 10 μM): 88.2 ± 2%
